Measured values as given in patent US10604739B2, “Cardiomyocyte production” (Cellular Dynamics International, Inc., priority 2009, dated 2020).
Several values for one entry are separate records, joined by “and”; a condition that tells them apart may be missing. Equal values may be shown once.

Columns and labels:
[1] = test system: H9-TGZ cells; assay: H9-TGZ Growth Factor Titration #2; type: cell-based, human; conditions: FIGS. 31A-C
Protocol: (§1) Aggregate formation and cardiac induction procedures of those iPS cells at different initial densities were performed essentially the same as described in Examples 4 except different concentrations of human HGF (hHGF) and FGF were applied to Aggregate Formation Medium, Aggregate Transition Medium and Cardiac Induction Medium.
While the iPS6.1 optimization was underway, a separate series of experiments was conducted to optimize the growth factor concentrations for the H9-TGZ cells. […] Therefore, the FGF range tested was higher than that in the recent iPS6.1 experiments. This experiment confirmed that optimum cardiomyocyte production requires 100-150 ng/mL FGF with the H9-TGZ cells (FIGS. 31A-C).

[2] = test system: iPS6.1 cells; assay: iPS6.1 Growth Factor Titration #1; type: cell-based, human; conditions: hbFGF 0 or 25 ng/mL, FIGS. 29A-B
Protocol: as §1
Conditions without FGF had virtually no surviving aggregates and no measurable cardiomyocytes (FIGS. 29A-B). On the other hand, all conditions with FGF yielded cardiomyocytes independent of HGF concentration (FIGS. 29A-B).

[3] = test system: iPS6.1 cells; assay: iPS6.1 Growth Factor Titration #2; type: cell-based, human; conditions: hbFGF 3-100 ng/mL, FIGS. 30A-B
Protocol: as §1
Based on the results of the first experiment (see FIGS. 29A-B), the second iPS6.1 growth factor titration focused on the lower dose range for both FGF and HGF (FIGS. 30A-B). […] However, it is important to note that in no case did the omission of HGF lead to the failure of a condition which was otherwise successful in the presence of HGF.

[4] = test system: iPS6.1 cells; assay: iPS6.1 Four Corners experiment, FGF x HGF cardiac induction; type: cell-based, human; conditions: iPS6.1 cells, 25 ng/mL FGF and/or 50 ng/mL HGF, single T25 flask, day 14; listed as FGF only
Protocol: as §1
Concurrent with the second iPS growth factor titration, a simple experiment (Table 19) was set up with iPS6.1 cells to test the 2×2 matrix of 0 and 25 ng/mL FGF and 0 and 50 ng/mL HGF. The positive concentrations of FGF and HGF were chosen based on the current best practices for iPS6.1 cells at the time and were identical to the conditions used for cardiac induction of H1 cells in both the plated and suspension processes. This experiment confirmed previous work showing the necessity of FGF for the process.

[5] = test system: iPS 6.1 and iPS 6.1 MRB; assay: iPS cell passaging with NaCitrate in Double Stacks; type: cell-based, human
Protocol: Dissociated iPS cells were rinsed with D-PBS (Dulbecco's Phosphate Buffered Saline) free of Ca^2+ and Mg^2+ and the media were aspirated. The cells were then incubated with appropriate amount (i.e., 1 mL for one well of 6-well plate, 15 mL for T-150 flask, etc) of 15 mM NaCitrate, 165 mM KCl, pH 7.3, OSM 340, at room temperature for 6-15 minutes. After incubation, the NaCitrate solution were aspirated with the cells still loosely attached. The cells were resuspended in appropriate amount of TeSR with 1 μM H1152 and distributed to Matrigel™ surfaced vessel.
For scale up production of the starting material from T150 flasks to Corning Double Stacks, and for assessment of the ability of iPS cells to be passaged as single cells/small clumps with NaCitrate, iPS 6.1 and iPS 6.1 MRB were passaged with 15 mM NaCitrate as single cells or small cell clumps into double stacks while maintaining T150 control flasks split with dispase (see FIG. 1 for experimental design). […] Cells were assessed at passage 4 and passage 7 with cardiogenesis, pluripotency panel, and karyotype. […] Aggregate images and cTnT staining for cardiomyocytes were analyzed on day 14 after splitting (FIGS. 4A-D, FIGS. 5A-C, FIGS. 6A-B, FIGS. 7A-C). Pluripotency profiles of iPS cells after passaging with NaCitrate and dispase was compared by flow cytometry using five pluripotency markers (FIGS. 8A-C). It appears safe to passage iPS cells at least four times with the NaCitrate method.
Cardiogenesis was also analyzed for those iPS cells after passaging with NaCitrate and data were compiled in FIG. 9. […] The last three “spinner” samples come from Double Stack iPS 6.1 MRB cells that were left over from various Double stack harvests. An average yield of 110e6 cells/L was obtained in 1 L spinner with cells passaged in double stacks with NaCitrate.

[6] = test system: pluripotent stem cell-derived cardiomyocytes; conditions: cited from earlier work
[7] = test system: ROCK2; conditions: ROCK1/ROCK2; cited from earlier work

## FGF: human recombinant basic FGF, R&D systems
[1]
  FGF concentration required for optimum cardiomyocyte production: 100 to 150 ng/mL
[2]
  Requirement for CM differentiation process: required for the CM differentiation process to be successful
[3]
  FGF dose response (aggregate survival, cardiogenesis): too little FGF led to poor aggregate survival and high doses had survival but lacked cardiogenesis
[4]
  % cTNT+: 11.2% and 11.9% and 13.1%

## O=C([O-])CC(O)(CC(=O)[O-])C(=O)[O-].[Na+].[Na+].[Na+] [NaCitrate]
[5]; 1 L spinner, cells passaged in double stacks with NaCitrate
  Average yield of cardiomyocytes: 110e6 cells/L
[5]; Double Stack NaCitrate conditions, 15 mM NaCitrate
  Doubling time: ~30 h
[5]; cells split 4 times with NaCitrate
  Karyotype: maintained a normal karyotype

## COc1ccc([C@@H]2Sc3ccccc3N(CCN(C)C)C(=O)[C@@H]2OC(C)=O)cc1 [diltiazem]
[6]
  Contractile activity: inhibits contractile activity in a dose-dependent manner

## CC(C)NCC(O)c1ccc(O)c(O)c1 (centres unmarked) [isoprenaline]
[6]
  Chronotropic effect: positive chronotropic effect

## CNC[C@H](O)c1cccc(O)c1 [phenylephrine]
[6]
  Chronotropic effect: positive chronotropic effect
